According to ChEMBL document CHEMBL1129256, “Potent thrombin inhibitors that probe the S1 subsite: tripeptide transition state analogues based on a heterocycle-activated carbonyl group” (J Med Chem, 1996):

Assays:
[1] = Compound was tested for inhibition of activated protein C. selectivity with respect to thrombin
[2] = Compound was tested for inhibition of plasmin, selectivity with respect to thrombin
[3] = Compound was tested for inhibition of streptokinase (SK). selectivity with respect to thrombin
[4] = Compound was tested for inhibition of tissue-type plasminogen activator (tissue plasminogen activator), selectivity with respect to thrombin
[5] = species on record: Bos taurus; assay: Inhibition of trypsin, selectivity with respect to thrombin
[6] = target: T1, Serine protease 1 (Bos taurus, UniProt P00760); assay: Inhibition of bovine trypsin
T1 sequence (P00760 whole entry): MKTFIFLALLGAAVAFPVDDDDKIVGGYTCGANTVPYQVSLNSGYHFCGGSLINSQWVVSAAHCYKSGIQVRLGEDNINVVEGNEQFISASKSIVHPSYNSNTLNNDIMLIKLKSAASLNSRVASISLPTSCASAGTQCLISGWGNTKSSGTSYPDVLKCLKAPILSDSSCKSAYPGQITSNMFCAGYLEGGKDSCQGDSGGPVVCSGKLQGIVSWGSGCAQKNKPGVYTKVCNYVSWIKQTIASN

[7] = target: Prothrombin (Homo sapiens, UniProt P00734); assay: Inhibition of human alpha-thrombin.

Selectivity [5] | Ki [6] | Ki [7] | SMILES | other results
0.39 | – | – | CN[C@H](Cc1ccccc1)C(=O)N1CCC[C@H]1C(=O)N[C@H](C=O)CCCNC(=N)N | Selectivity [1]: 72; Selectivity [2]: 33; Selectivity [3]: 170; Selectivity [4]: 130
– | > 150000 nM | 16000 nM | Cc1ccc(S(=O)(=O)N/C(N)=N\CCC[C@@H](NC(=O)[C@H]2CCCN2C(=O)[C@H](Cc2ccccc2)N(C)C(=O)OCc2ccccc2)C(O)c2nc3ccccc3s2)cc1 (some centres undefined) | –
0.8 | 2.9 nM | 3.8 nM | CN[C@H](Cc1ccccc1)C(=O)N1CCC[C@H]1C(=O)N[C@@H](CCCN=C(N)N)C(=O)c1nc2ccccc2o1 | –
0.4 | – | – | CN[C@H](Cc1ccccc1)C(=O)N1CCC[C@H]1C(=O)N[C@@H](CCCN=C(N)N)C(=O)c1nccs1 | –
– | > 150000 nM | 5300 nM | Cc1ccc(S(=O)(=O)NC(=N)NCCC[C@H](NC(=O)[C@@H]2CCCN2C(=O)[C@@H](Cc2ccccc2)N(C)C(=O)OCc2ccccc2)C(O)c2nc3ccccc3s2)cc1 (some centres undefined) | –
– | 4.4 nM | 3.4 nM | CN[C@H](Cc1ccccc1)C(=O)N1CCC[C@H]1C(=O)N[C@@H](CCCNC(=N)N)C(=O)c1nc2c(s1)CCCC2 | –
– | 38 nM | 12 nM | CN[C@H](Cc1ccccc1)C(=O)N1CCC[C@H]1C(=O)N[C@@H](CCCNC(=N)N)C(=O)c1nc2ccccc2[nH]1 | –
0.6 | 8.2 nM | 15 nM | CN[C@H](Cc1ccccc1)C(=O)N1CCC[C@H]1C(=O)N[C@@H](CCCN=C(N)N)C(=O)C1=NC(=O)C2C=CC=CC2=N1 (some centres undefined) | –
16 | – | 0.19 nM | CN[C@H](Cc1ccccc1)C(=O)N1CCC[C@H]1C(=O)N[C@@H](CCCN=C(N)N)C(=O)c1nc2ccccc2s1 | Selectivity [1]: 19000; Selectivity [2]: 12000; Selectivity [3]: 6300; Selectivity [4]: 3300
3.2 | – | – | CN[C@H](Cc1ccccc1)C(=O)N1CCC[C@H]1C(=O)N[C@@H](CCCN=C(N)N)C(=O)c1nc2ccccc2[nH]1 | –
– | 4400 nM | 50 nM | CN[C@H](Cc1ccccc1)C(=O)N1CCC[C@H]1C(=O)N[C@@H](CCCN=C(N)N)C(=O)c1nccn1C | –
1.3 | – | – | CN[C@H](Cc1ccccc1)C(=O)N1CCC[C@H]1C(=O)N[C@@H](CCCN=C(N)N)C(=O)c1nc2c(s1)CCCC2 | –
– | 1.6 nM | 3.6 nM | CN[C@H](Cc1ccccc1)C(=O)N1CCC[C@H]1C(=O)N[C@@H](CCCNC(=N)N)C(=O)c1nccs1 | –
88 | – | – | CN[C@H](Cc1ccccc1)C(=O)N1CCC[C@H]1C(=O)N[C@@H](CCCNC(=N)N)C(=O)c1nccn1C | –
0.8 | 73 nM | 85 nM | CN[C@H](Cc1ccccc1)C(=O)N1CCC[C@H]1C(=O)N[C@@H](CCCNC(=N)N)C(=O)c1ccccn1 | –

SMILES | Selectivity [5] | Ki [6] | Ki [7] | other results
CN[C@H](Cc1ccccc1)C(=O)N1CCC[C@H]1C(=O)N[C@@H](CCCNC(=N)N)C(=O)c1nc2ccccc2n1C | 36 | 290 nM | 8.1 nM | –
